# Results reported in patent US12065430B2, “Indazole compound or salt thereof” (TAIHO PHARMACEUTICAL CO., LTD., priority 2018, dated 2024).
# Target: G12C K-Ras4B (1-169) (Homo sapiens (Human), UniProt P01116, G12C)
# Assay: Test of compounds on whether to bind to KRASG12C (LC-MS compound binding rate)
# Conditions: final compound concentration of 2 μM, 1 μM protein, 25° C. for 2 hours
# Experimental: Test compounds were prepared in the form of a 10 mM DMSO solution.
# K-Ras4B (1-169) and G12C K-Ras4B (1-169) proteins were mixed and diluted with a buffer (1×TBS, 0.1 mM TCEP) to prepare individual 1 μM protein solutions. A 10 mM test compound was diluted tenfold with DMSO to make a 1 mM solution, and then diluted fivefold with DMSO to make a 200 μM solution. The 200 μM solution was further diluted fivefold to make a 40 μM solution. When the final compound concentration was 10 μM, 1 μL of a 200 μM test compound was added to 19 μL of a 1 μM protein solution. When the final compound concentration was 2 μM, 1 μL of a 40 μM test compound was added to 19 μL of a 1 μM protein solution. The mixtures were stored in an incubator at 25° C. for 2 hours, and 80 μL of a 1×TBS solution containing 0.2% formic acid was added thereto to end the reaction, followed by LC-MS measurement. LC-MS measurement was performed using Xevo G2-S Q-Tof manufactured by Waters, and reverse-phase chromatography was performed with a desalting column. A mass spectrum of positive ions was obtained by electrospray. For a mass spectrum, a spectrum of a polyvalent ion was collectively converted to a molecular weight by using OpenLynx software by the MaxEnt technique, and a compound binding rate was obtained from the ratio of a signal intensity that corresponds to the molecular weight of a protein to a signal intensity that corresponds to the molecular weight of a compound binding to the protein.
# By obtaining the compound binding rate for K-Ras4B (1-169) and the compound binding rate for G12C K-Ras4B (1-169) at the same time, information of the selectivity for G12C K-Ras4B (1-169) was obtained at the same time.
# The test compounds were measured at their final compound concentration of 2 μM. […] Almost no compounds of the present invention binded to K-Ras4B (1-169). The “binding rate” (%) for each of K-Ras4B (1-169) and G12C K-Ras4B (1-169) refers to the ratio of the signal intensity of binded forms to the sum of the signal intensity of non-binded forms and the signal intensity of binded forms.
row,SMILES,binding rate for G12C K-Ras4B (1-169)
1,"C=CC(=O)N1C[C@@H](C)[C@@H](NC(=O)c2c(C(F)F)nc(CNc3n[nH]c4cc(Cl)c(C(C)(C)C)cc34)n2C)C1 [Example 71, N-((3R,4R)-1-acryloyl-4-methylpyrrolidin-3-yl)-2-(((5-(tert-butyl)-6-chloro-1H-indazol-3-yl)amino)methyl)-4-(difluoromethyl)-1-methyl-1H-imidazole-5-carboxamide]","C (a binding rate of 40% or more and less than 60% is rated “C,”)"
2,"C=CC(=O)N1CC[C@@H](N(C)C(=O)c2cnc(CNc3n[nH]c4cc(Cl)c(C(C)(C)C)cc34)n2C)C1 [Example 77, (R)—N-(1-acryloylpyrrolidin-3-yl)-2-(((5-(tert-butyl)-6-chloro-1H-indazol-3-yl)amino)methyl)-N,1-dimethyl-1H-imidazole-5-carboxamide]","C (a binding rate of 40% or more and less than 60% is rated “C,”)"
3,"C=CC(=O)N1C[C@H](NC(=O)c2c(C)nc(CNc3n[nH]c4cc(Cl)c(C(C)(C)C)cc34)n2C)[C@@H](C)C1 [Example 60, N-((3R,4S)-1-acryloyl-4-methylpyrrolidin-3-yl)-2-(((5-(tert-butyl)-6-chloro-1H-indazol-3-yl)amino)methyl)-1,4-dimethyl-1H-imidazole-5-carboxamide]","C (a binding rate of 40% or more and less than 60% is rated “C,”)"
4,"C=CC(=O)N1C[C@@H](NC(=O)c2c(C)nc(CNc3n[nH]c4cc(Cl)c(C(C)(C)C)cc34)n2C)[C@@H]1C (relative stereo) [Example 59, N-(trans-1-acryloyl-2-methylazetidin-3-yl)-2-(((5-(tert-butyl)-6-chloro-1H-indazol-3-yl)amino)methyl)-1,4-dimethyl-1H-imidazole-5-carboxamide]","B (a binding rate of 60% or more and less than 80% is rated “B,”)"
5,"C=CC(=O)NC1CN(C(=O)c2c(C)nc(CNc3n[nH]c4cc(Cl)c(C(C)(C)C)cc34)n2C)C1 [Example 46, N-(1-(2-(((5-(tert-butyl)-6-chloro-1H-indazol-3-yl)amino)methyl)-1,4-dimethyl-1H-imidazole-5-carbonyl)azetidin-3-yl) acrylamide]","B (a binding rate of 60% or more and less than 80% is rated “B,”)"
6,"CC#CC(=O)N1CC(NC(=O)c2c(C)nc(CNc3n[nH]c4cc(Cl)c(C(C)(C)C)cc34)n2C(C)C)C1 [Example 82, N-(1-(buty-2-noyl)azetidin-3-yl)-2-(((5-(tert-butyl)-6-chloro-1H-indazol-3-yl)amino)methyl)-1-isopropyl-4-methyl-1H-imidazole-5-carboxamide]","D (a binding rate of 20% or more and less than 40% is rated “D,”)"
7,"Cc1nc(CNc2n[nH]c3cc(Cl)c(C(C)(C)C)cc23)n(C)c1C(=O)NC1CN(C(=O)/C=C/CN(C)C)C1 [Example 80, (E)-2-(((5-(tert-butyl)-6-chloro-1H-indazol-3-yl)amino)methyl)-N-(1-(4-(dimethylamino)but-2-enoyl)azetidin-3-yl)-1,4-dimethyl-1H-imidazole-5-carboxamide]","C (a binding rate of 40% or more and less than 60% is rated “C,”)"
8,"C=CC(=O)N1CC(NC(=O)c2c(Cl)nc(CNc3n[nH]c4cc(Cl)c(C5(C(F)(F)F)CC5)cc34)n2C(C)C)C1 [Example 44, N-(1-acryloylazetidin-3-yl)-4-chloro-2-(((6-chloro-5-(1-(trifluoromethyl)cyclopropyl)-1H-indazol-3-yl)amino)methyl)-1-isopropyl-1H-imidazole-5-carboxamide]","B (a binding rate of 60% or more and less than 80% is rated “B,”)"
9,"C=CC(=O)N1CCC(NC(=O)c2c(C)nc(CNc3n[nH]c4cc(Cl)c(C(C)(C)C)cc34)n2C)CC1 [Example 47, N-(1-acryloylpiperidin-4-yl)-2-(((5-(tert-butyl)-6-chloro-1H-indazol-3-yl)amino)methyl)-1,4-dimethyl-1H-imidazole-5-carboxamide]","C (a binding rate of 40% or more and less than 60% is rated “C,”)"
10,"C=CC(=O)N1CC(NC(=O)c2c(I)nc(CNc3n[nH]c4cc(Cl)c(C(C)(C)C)cc34)n2C)C1 [Example 26, N-(1-acryloylazetidin-3-yl)-2-(((5-(tert-butyl)-6-chloro-1H-indazol-3-yl)amino)methyl)-4-iodo-1-methyl-1H-imidazole-5-carboxamide]","A (a binding rate of 80% or more is rated “A,”)"
11,"C=CC(=O)N1CC(NC(=O)c2c(C)nc(CNc3n[nH]c4ccc(C(C)(C)C)cc34)n2C(C)C)C1 [Example 42, N-(1-acryloylazetidin-3-yl)-2-(((5-(tert-butyl)-1H-indazol-3-yl)amino)methyl)-1-isopropyl-4-methyl-1H-imidazole-5-carboxamide]","B (a binding rate of 60% or more and less than 80% is rated “B,”)"
12,"C=CC(=O)N1CC(NC(=O)c2c(Cl)nc(CNc3n[nH]c4cc(Cl)c(C(C)(C)C)cc34)n2[C@H]2CCN(CC(F)F)C2)C1 [Example 115, (S)—N-(1-acryloylazetidin-3-yl)-2-(((5-(tert-butyl)-6-chloro-1H-indazol-3-yl)amino)methyl)-4-chloro-1-(1-(2,2-difluoroethyl)pyrrolidin-3-yl)-1H-imidazole-5-carboxamide]","A (a binding rate of 80% or more is rated “A,”)"
13,"[2H]C([2H])(Nc1n[nH]c2cc(Cl)c(C(C)(C)C)cc12)c1nc(C)c(C(=O)NC2CN(C(=O)C=C)C2)n1C [Example 5, N-(1-acryloylazetidin-3-yl)-2-(((5-(tert-butyl)-6-chloro-1H-indazol-3-yl)amino)methyl-d2)-1,4-dimethyl-1H-imidazole-5-carboxamide]","A (a binding rate of 80% or more is rated “A,”)"
14,"C=CC(=O)N1CC(NC(=O)c2c(Cl)nc(CNc3n[nH]c4cc(Cl)c(C(C)(C)C)cc34)n2[C@H]2C[C@H](C)CC[C@H]2C(C)C)C1 [Example 111, N-(1-acryloylazetidin-3-yl)-2-(((5-(tert-butyl)-6-chloro-1H-indazol-3-yl)amino)methyl)-4-chloro-1-((1S,2S,5R)-2-isopropyl-5-methylcyclohexyl)-1H-imidazole-5-carboxamide]","B (a binding rate of 60% or more and less than 80% is rated “B,”)"
15,"C=CC(=O)N1CC(NC(=O)c2oc(CNc3n[nH]c4cc(Cl)c(C(C)(C)C)cc34)nc2C)C1 [Example 11, N-(1-acryloylazetidin-3-yl)-2-(((5-(tert-butyl)-6-chloro-1H-indazol-3-yl)amino)methyl)-4-methyloxazole-5-carboxamide]","B (a binding rate of 60% or more and less than 80% is rated “B,”)"
16,"C=CC(=O)N1CC(NC(=O)c2cnc(CNc3n[nH]c4cc(Cl)c(C(C)(C)C)cc34)n2C)C1 [Example 1, N-(1-acryloylazetidin-3-yl)-2-(((5-(tert-butyl)-6-chloro-1H-indazol-3-yl)amino)methyl)-1-methyl-1H-imidazole-5-carboxamide]","A (a binding rate of 80% or more is rated “A,”)"
17,"C=CC(=O)N1CC(NC(=O)c2ccc(CNc3n[nH]c4cc(Cl)c(C(C)(C)C)cc34)o2)C1 [Reference Example 2, N-(1-acryloylazetidin-3-yl)-5-(((5-(tert-butyl)-6-chloro-1H-indazol-3-yl)amino)methyl)furan-2-carboxamide, reference compound]",E (a binding rate of less than 20% is rated “E.”)
18,"C=CC(=O)N1CC(NC(=O)c2c(Cl)nc(CNc3n[nH]c4cc(Cl)c(C(C)(C)C)cc34)n2CC(F)F)C1 [Example 100, N-(1-acryloylazetidin-3-yl)-2-(((5-(tert-butyl)-6-chloro-1H-indazol-3-yl)amino)methyl)-4-chloro-1-(2,2-difluoroethyl)-1H-imidazole-5-carboxamide]","A (a binding rate of 80% or more is rated “A,”)"
19,"C=CC(=O)N1CC(NC(=O)c2c(CC)nc(CNc3n[nH]c4cc(Cl)c(C(C)(C)C)cc34)n2C)C1 [Example 31, N-(1-acryloylazetidin-3-yl)-2-(((5-(tert-butyl)-6-chloro-1H-indazol-3-yl)amino)methyl)-4-ethyl-1-methyl-1H-imidazole-5-carboxamide]","D (a binding rate of 20% or more and less than 40% is rated “D,”)"
20,"C=CC(=O)N1CC(NC(=O)c2c(Cl)nc(CNc3n[nH]c4cc(Cl)c(C(C)(C)C)cc34)n2CCCC)C1 [Example 87, N-(1-acryloylazetidin-3-yl)-1-butyl-2-(((5-(tert-butyl)-6-chloro-1H-indazol-3-yl)amino)methyl)-4-chloro-1H-imidazole-5-carboxamide]","A (a binding rate of 80% or more is rated “A,”)"
